Experimental data as given in PubChem BioAssay AID2060883 (Molecular Pharmacology Branch, DTP, NCI, 2025).

Test system: 843782-103-R-J1-PDC complex spheroid viability
Test: Anticancer human tumor 843782-103-R-J1-PDC patient-derived lung adenocarcinoma cell line growth inhibition [RAS]
Conditions: for IC50: curve of first compound; for viability, T/C: stronger effect = lower value
Procedure, shortened: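 Agents were tested in combination matrices in half-log decrements from a top concentration at or near clinical Cmax (10 microM if undetermined). Targets were multi-cell spheroids of tumour lines plus HUVEC and MSC stromal cells.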

[1] = second compound 0.0316 µM, first compound 0.0316 µM
[2] = second compound 0.0316 µM, first compound 0.1 µM
[3] = second compound 0.0316 µM, first compound 0.316 µM
[4] = second compound 0.0316 µM, first compound 1 µM
[5] = second compound 0.0316 µM, first compound 3.16 µM
[6] = second compound 0.0316 µM, first compound 10 µM
[7] = second compound 0.1 µM, first compound 0.0316 µM
[8] = second compound 0.1 µM, first compound 0.1 µM
[9] = second compound 0.1 µM, first compound 0.316 µM
[10] = second compound 0.1 µM, first compound 1 µM
[11] = second compound 0.1 µM, first compound 3.16 µM
[12] = second compound 0.1 µM, first compound 10 µM
[13] = second compound 0.316 µM, first compound 0.0316 µM
[14] = second compound 0.316 µM, first compound 0.1 µM
[15] = second compound 0.316 µM, first compound 0.316 µM
[16] = second compound 0.316 µM, first compound 1 µM
[17] = second compound 0.316 µM, first compound 3.16 µM
[18] = second compound 0.316 µM, first compound 10 µM
[19] = second compound 1 µM, first compound 0.0316 µM
[20] = second compound 1 µM, first compound 0.1 µM
[21] = second compound 1 µM, first compound 0.316 µM
[22] = second compound 1 µM, first compound 1 µM
[23] = second compound 1 µM, first compound 3.16 µM
[24] = second compound 1 µM, first compound 10 µM
[25] = second compound 3.16 µM, first compound 0.0316 µM
[26] = second compound 3.16 µM, first compound 0.1 µM
[27] = second compound 3.16 µM, first compound 0.316 µM
[28] = second compound 3.16 µM, first compound 1 µM
[29] = second compound 3.16 µM, first compound 3.16 µM
[30] = second compound 3.16 µM, first compound 10 µM
[31] = second compound 10 µM, first compound 0.0316 µM
[32] = second compound 10 µM, first compound 0.1 µM
[33] = second compound 10 µM, first compound 0.316 µM
[34] = second compound 10 µM, first compound 1 µM
[35] = second compound 10 µM, first compound 3.16 µM
[36] = second compound 10 µM, first compound 10 µM
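Note: viability read after seven days of compound exposure.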

## CC(C)NCC(C(=O)N1CCN(c2ncnc3c2C(C)CC3O)CC1)c1ccc(Cl)cc1 (stereo unspecified) + CCn1c(-c2cc(N3CCN(C)CC3)cnc2C(C)OC)c2c3cc(ccc31)-c1csc(n1)CC(NC(=O)C1CC1C)C(=O)N1CCCC(N1)C(=O)OCC(C)(C)C2
Second compound 0.000949 µM
  IC50: 511 nM
Second compound 0.003 µM
  IC50: 242 nM
Second compound 0.00949 µM
  IC50: < 31.6 nM
Second compound 0.03 µM
  IC50: < 31.6 nM
Second compound 0.0949 µM
  IC50: < 31.6 nM
Second compound 0.3 µM
  IC50: < 31.6 nM
Second compound 0.000949 µM, first compound 0.0316 µM
  viability, T/C: 80.6%
Second compound 0.000949 µM, first compound 0.1 µM
  viability, T/C: 73.9%
Second compound 0.000949 µM, first compound 0.316 µM
  viability, T/C: 64.6%
Second compound 0.000949 µM, first compound 1 µM
  viability, T/C: 30.4%
Second compound 0.000949 µM, first compound 3.16 µM
  viability, T/C: 14.7%
Second compound 0.000949 µM, first compound 10 µM
  viability, T/C: 6.49%
Second compound 0.003 µM, first compound 0.0316 µM
  viability, T/C: 62.2%
Second compound 0.003 µM, first compound 0.1 µM
  viability, T/C: 63.7%
Second compound 0.003 µM, first compound 0.316 µM
  viability, T/C: 44.8%
Second compound 0.003 µM, first compound 1 µM
  viability, T/C: 25.8%
Second compound 0.003 µM, first compound 3.16 µM
  viability, T/C: 10.7%
Second compound 0.003 µM, first compound 10 µM
  viability, T/C: 5.07%
Second compound 0.00949 µM, first compound 0.0316 µM
  viability, T/C: 39.6%
Second compound 0.00949 µM, first compound 0.1 µM
  viability, T/C: 38%
Second compound 0.00949 µM, first compound 0.316 µM
  viability, T/C: 24.9%
Second compound 0.00949 µM, first compound 1 µM
  viability, T/C: 15%
Second compound 0.00949 µM, first compound 3.16 µM
  viability, T/C: 8.4%
Second compound 0.00949 µM, first compound 10 µM
  viability, T/C: 4.07%
Second compound 0.03 µM, first compound 0.0316 µM
  viability, T/C: 22.4%
Second compound 0.03 µM, first compound 0.1 µM
  viability, T/C: 25%
Second compound 0.03 µM, first compound 0.316 µM
  viability, T/C: 16.6%
Second compound 0.03 µM, first compound 1 µM
  viability, T/C: 9.92%
Second compound 0.03 µM, first compound 3.16 µM
  viability, T/C: 7.32%
Second compound 0.03 µM, first compound 10 µM
  viability, T/C: 2.47%
Second compound 0.0949 µM, first compound 0.0316 µM
  viability, T/C: 16.7%
Second compound 0.0949 µM, first compound 0.1 µM
  viability, T/C: 18%
Second compound 0.0949 µM, first compound 0.316 µM
  viability, T/C: 13.8%
Second compound 0.0949 µM, first compound 1 µM
  viability, T/C: 8.39%
Second compound 0.0949 µM, first compound 3.16 µM
  viability, T/C: 5.39%
Second compound 0.0949 µM, first compound 10 µM
  viability, T/C: 2.13%
Second compound 0.3 µM, first compound 0.0316 µM
  viability, T/C: 18%
Second compound 0.3 µM, first compound 0.1 µM
  viability, T/C: 14%
Second compound 0.3 µM, first compound 0.316 µM
  viability, T/C: 12.4%
Second compound 0.3 µM, first compound 1 µM
  viability, T/C: 7.41%
Second compound 0.3 µM, first compound 3.16 µM
  viability, T/C: 3.93%
Second compound 0.3 µM, first compound 10 µM
  viability, T/C: 1.56%

## NC1c2ccccc2OC12CCN(c1cnc3c(N4CCCc5ncccc54)n[nH]c3n1)CC2 (stereo unspecified) + C#Cc1c(F)ccc2cc(O)cc(-c3ncc4c(N5CC6CCC(C5)N6)nc(OCC56CCCN5CC(F)C6)nc4c3F)c12
Second compound 0.0316 µM
  IC50: 1160 nM
Second compound 0.1 µM
  IC50: 642 nM
Second compound 0.316 µM
  IC50: 231 nM
Second compound 1 µM
  IC50: 72.1 nM
Second compound 3.16 µM
  IC50: < 31.6 nM
Second compound 10 µM
  IC50: < 31.6 nM
[1]
  viability, T/C: 92.1%
[2]
  viability, T/C: 81.1%
[3]
  viability, T/C: 60.6%
[4]
  viability, T/C: 53%
[5]
  viability, T/C: 40.9%
[6]
  viability, T/C: 25.8%
[7]
  viability, T/C: 87.8%
[8]
  viability, T/C: 69.8%
[9]
  viability, T/C: 54.9%
[10]
  viability, T/C: 46.2%
[11]
  viability, T/C: 37.9%
[12]
  viability, T/C: 22.5%
[13]
  viability, T/C: 82%
[14]
  viability, T/C: 61.8%
[15]
  viability, T/C: 42.8%
[16]
  viability, T/C: 37.2%
[17]
  viability, T/C: 29.4%
[18]
  viability, T/C: 21.2%
[19]
  viability, T/C: 69%
[20]
  viability, T/C: 38.5%
[21]
  viability, T/C: 32.9%
[22]
  viability, T/C: 26.8%
[23]
  viability, T/C: 21.3%
[24]
  viability, T/C: 14.9%
[25]
  viability, T/C: 43.3%
[26]
  viability, T/C: 25.7%
[27]
  viability, T/C: 22.9%
[28]
  viability, T/C: 18.8%
[29]
  viability, T/C: 21.1%
[30]
  viability, T/C: 15.9%
[31]
  viability, T/C: 30.3%
[32]
  viability, T/C: 16.4%
[33]
  viability, T/C: 24%
[34]
  viability, T/C: 19.1%
[35]
  viability, T/C: 17.5%
[36]
  viability, T/C: 9.27%

## CC1(O)CCCC1n1c(=O)c(C(F)F)cc2cnc(NC3CCN(S(C)(=O)=O)CC3)nc21 (stereo unspecified) + C#Cc1c(F)ccc2cc(O)cc(-c3ncc4c(N5CC6CCC(C5)N6)nc(OCC56CCCN5CC(F)C6)nc4c3F)c12
Second compound 0.0316 µM
  IC50: 237 nM
Second compound 0.1 µM
  IC50: 343 nM
Second compound 0.316 µM
  IC50: 283 nM
Second compound 1 µM
  IC50: 304 nM
Second compound 3.16 µM
  IC50: 149 nM
Second compound 10 µM
  IC50: < 31.6 nM
[1]
  viability, T/C: 98.9%
[2]
  viability, T/C: 93.4%
[3]
  viability, T/C: 34.7%
[4]
  viability, T/C: 41.8%
[5]
  viability, T/C: 23.2%
[6]
  viability, T/C: 3.99%
[7]
  viability, T/C: 102%
[8]
  viability, T/C: 82.7%
[9]
  viability, T/C: 37%
[10]
  viability, T/C: 38.9%
[11]
  viability, T/C: 23.6%
[12]
  viability, T/C: 3.28%
[13]
  viability, T/C: 104%
[14]
  viability, T/C: 77.5%
[15]
  viability, T/C: 33.8%
[16]
  viability, T/C: 37.3%
[17]
  viability, T/C: 26.5%
[18]
  viability, T/C: 3.67%
[19]
  viability, T/C: 97.9%
[20]
  viability, T/C: 79.1%
[21]
  viability, T/C: 39.2%
[22]
  viability, T/C: 31.7%
[23]
  viability, T/C: 26.2%
[24]
  viability, T/C: 3.42%
[25]
  viability, T/C: 84.6%
[26]
  viability, T/C: 56.5%
[27]
  viability, T/C: 27.6%
[28]
  viability, T/C: 33.9%
[29]
  viability, T/C: 26%
[30]
  viability, T/C: 2.68%
[31]
  viability, T/C: 52.9%
[32]
  viability, T/C: 32.7%
[33]
  viability, T/C: 30.9%
[34]
  viability, T/C: 27.6%
[35]
  viability, T/C: 29%
[36]
  viability, T/C: 1.43%
